Results taken from patent US5426194A, “Isolation and structure of Halistatin 1” (Arizona Board of Regents, a body corporate acting on behalf …, priority 1993, dated 1995).

Legend:
[1] = system: L1210 murine leukemia cells; assay: cytotoxicity in L1210 leukemia cells; format: cell-based
[2] = system: L1210 murine leukemia cells; assay: mitotic index at cytotoxic concentrations; format: cell-based; conditions: in words
tubulin [3] = assay: binding of radiolabeled vinblastine to tubulin
tubulin [4] = assay: radiolabeled GTP binding to tubulin (nucleotide exchange)
[5] = system: human tumor cell line panel; assay: NCI in vitro primary screen, pattern of differential growth inhibition / mean graph comparison; format: cell-based; conditions: computerized pattern-recognition analyses
Excerpt: Only two hundred years ago, many diseases ravaged humankind. Many of these diseases have been controlled or eradicated. In the development of the means to treat or control these diseases, work with the appropriate common experimental animals is of critical importance. With the various types of cancers, and with the HIV virus, such work is presently ongoing. The research for the treatment of various types of cancer is coordinated in the United States by the National Cancer Institute (NCI). NCI, as a government entity, has been charged with assisting all anti-cancer research. To establish whether a substance has anti-cancer activity, NCI has established a variety of protocols one of which involves testing the candidate substance against a cell line panel containing 60 human tumor cell lines. This protocol has been verified, and is generally accepted throughout the scientific community. This protocol and the established statistical means of evaluating the results obtained therefrom have been fully described in the literature See Principles & Practice of Oncology PPO Updates, Volume 3, Number 10, October 1989, by Michael R. Boyd, M.D., Ph.D. for an in depth description of the test protocol. […]

tubulin [6] = conditions: in words, shown previously; cited from earlier work
tubulin [7] = conditions: in words, shown previously; cited from earlier work; remark: listed apart in the source

Structure (SMILES) | IC50 [1] [nM] | rise in the mitotic index [2] | inhibition of binding of radiolabeled vinblastine (tubulin [3]; 5 μM) [%] | inhibition of binding of radiolabeled vinblastine (tubulin [3]; 10 μM) [%] | inhibition of radiolabeled GTP binding to tubulin (tubulin [4]; 5 μM) [%] | inhibition of radiolabeled GTP binding to tubulin (tubulin [4]; 10 μM) [%] | correlation of mean graph profiles [5] | mode of inhibition of vinblastine binding to tubulin (tubulin [6]) | inhibition of nucleotide exchange on tubulin (tubulin [7])
C=C1C[C@@H]2CC[C@@]34C[C@H]5O[C@H]6[C@@H](O3)[C@H]3O[C@H](CC[C@@H]3O[C@H]6[C@H]5O4)CC(=O)O[C@@H]3[C@@H](C)[C@@H]4O[C@@H]5C[C@]6(C[C@@H]7O[C@]8(C[C@H](C)[C@@H]9O[C@H]([C@@H](O)C[C@@H](O)CO)C[C@@H]9O8)C[C@H](C)[C@@H]7O6)O[C@@H]5C[C@@H]4O[C@H]3C[C@H]3O[C@@H](CC[C@@H]1O2)C[C@@H](C)C3=C [halichondrin B] | 0.2 | caused a significant rise in the mitotic index | 51 | 73 | 14 | 18 | strongly correlated with each other and also with the profiles of a general class of tubulin-interactive antimitotics | noncompetitive inhibitor of the binding of radiolabeled vinblastine to tubulin | inhibit nucleotide exchange on tubulin
C=C1C[C@@H]2CC[C@@]34C[C@H]5O[C@H]6[C@@H](O3)[C@H]3O[C@H](CC[C@@H]3O[C@H]6[C@H]5O4)CC(=O)O[C@@H]3[C@@H](C)[C@@H]4O[C@@H]5C[C@]6(C[C@@H]7O[C@]8(C[C@H](C)[C@@H]9O[C@@H]%10CC(C(O)CO)O[C@@H]%10C[C@@H]9O8)C[C@H](C)[C@@H]7O6)O[C@@H]5C[C@@H]4O[C@H]3C[C@H]3O[C@@H](CC[C@@H]1O2)C[C@@H](C)C3=C (stereo partly shown) [homohalichondrin B] | – | – | – | – | – | – | strongly correlated with each other and also with the profiles of a general class of tubulin-interactive antimitotics | – | –
